# Results published in article PMC8041284, “Tunable Methacrylamides for Covalent Ligand Directed Release Chemistry” (Journal of the American Chemical Society, 2021).
# Target: BTK (Homo sapiens, UniProt Q06187)
# Assay: biochemical
# Conditions: read-out: BTK inhibition (%)
# Sequence of BTK (Q06187 402-655 limits assumed): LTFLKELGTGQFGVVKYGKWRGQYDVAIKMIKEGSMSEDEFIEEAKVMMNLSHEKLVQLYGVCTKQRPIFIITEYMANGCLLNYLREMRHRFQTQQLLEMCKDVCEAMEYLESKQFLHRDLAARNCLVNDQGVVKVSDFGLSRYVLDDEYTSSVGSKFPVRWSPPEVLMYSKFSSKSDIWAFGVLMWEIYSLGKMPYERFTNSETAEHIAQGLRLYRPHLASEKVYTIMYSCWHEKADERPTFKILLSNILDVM
row,SMILES,inhibition at 10 µM [%]
1,CN1c2ccccc2C(NCCCCCCC(=O)O)c2ccc(Cl)cc2S1(=O)=O (stereo not drawn) [PCM-0095097],-13.2

# Same assay, conditions: read-out: BTK inhibition (%), 0.75 uM BTK, […] probe 3l, 15 min preincubation
row,SMILES,inhibition at 10 µM [%]
1,COc1cc(O)c2c(=O)cc(-c3ccc(O)c(O)c3)oc2c1 [PCM-0216461],61
2,C[C@@H](NC(=O)c1ncnc(N)c1Cl)c1ncc(C(=O)Nc2cc(C(F)(F)F)c(Cl)cn2)s1 [PCM-0215620],-12.4
3,CC(C)=CCC[C@](C)(O[C@@H]1O[C@H](CO)[C@@H](O)[C@H](O)[C@H]1O)[C@H]1CC[C@]2(C)[C@@H]1[C@H](O)C[C@@H]1[C@@]3(C)CC[C@H](O)C(C)(C)[C@@H]3[C@@H](O[C@@H]3O[C@H](CO)[C@@H](O)[C@H](O)[C@H]3O)C[C@]12C [PCM-0215029],14
4,CN[C@H](CC(=O)O)C(=O)O [PCM-0065539],-10
5,O=C(Nc1ccc([N+](=O)[O-])cc1)Nc1ccc([N+](=O)[O-])cc1 [PCM-0215156],-14
6,CCOC(=O)[C@H](CCc1ccccc1)N[C@@H](C)C(=O)N1[C@H](C(=O)O)C[C@@H]2CCC[C@@H]21 [PCM-0086308],-3.9
7,C[C@H]1CO[C@@H]2Cn3cc(C(=O)NCc4ccc(F)cc4F)c(=O)c(O)c3C(=O)N12 [PCM-0215445],24.7
8,Cc1ccc(C=C2C(=O)C3(C)CCC2C3(C)C)cc1 (stereo not drawn) [PCM-0214882],5.4
9,OC[C@H]1O[C@@H](OCCc2ccc(O)cc2)[C@H](O)[C@@H](O)[C@@H]1O [PCM-0094523],-13.2
10,C[C@@H]1CC[C@@]2(OC1)O[C@H]1C[C@H]3[C@@H]4CC=C5C[C@@H](O[C@@H]6O[C@H](CO)[C@@H](O[C@@H]7O[C@@H](C)[C@H](O[C@@H]8O[C@@H](C)[C@H](O)[C@@H](O)[C@H]8O)[C@@H](O)[C@H]7O)[C@H](O)[C@H]6O[C@@H]6O[C@@H](C)[C@H](O)[C@@H](O)[C@H]6O)CC[C@]5(C)[C@H]4CC[C@]3(C)[C@@]1(O)[C@@H]2C [PCM-0216432],-12.4
11,CCOc1nc2cccc(C(=O)O)c2n1Cc1ccc(-c2ccccc2-c2noc(=O)[nH]2)cc1 [PCM-0095534],-3.1
12,Cc1cc(=O)oc2ccc(O)cc12 [PCM-0216279],17
13,O=C(O)/C=C/c1cccc(O)c1 [PCM-0216210],-3.1
14,COCCOc1ccc2c(c1)ncn2-c1ccc2cccc(N3CCC(N)CC3)c2n1 [PCM-0095094],-18.6
15,Nc1ccn([C@@H]2O[C@H](COP(=O)(O)O)[C@@H](O)[C@H]2O)c(=O)n1 [PCM-0216146],-0.9
16,CCCCCCCN(CC)CCCC(O)c1ccc(NS(C)(=O)=O)cc1 (stereo not drawn) [PCM-0086483],-17.1
17,Cc1nc2cccc(N)c2c(=O)n1C1CCC(=O)NC1=O (stereo not drawn) [PCM-0215785],2.3
18,COc1ccc(COc2ccc(Cc3cnc(N)nc3N)cc2OC)cc1 [PCM-0095630],-7.6
19,CCn1c(=O)c(-c2ccn[nH]2)cc2c(C)nc(N)nc21 [PCM-0215577],7.6
20,COC(=O)C1=C(C)NC(C)=C(C(=O)OC)C1c1ccccc1[N+](=O)[O-] [PCM-0064767],14
21,CN(CC(=O)N(Cc1ccc(C2CCCCC2)cc1)c1ccc(C(=O)NO)cc1)S(=O)(=O)c1c(F)c(F)c(F)c(F)c1F [PCM-0215779],19.3
22,O=P(O)(O)OC(CO)CO [PCM-0215880],11.9
23,C#C[C@]1(O)CC[C@H]2[C@@H]3CCC4=CC(=O)CC[C@@H]4[C@H]3C(=C)C[C@@]21CC [PCM-0214842],3.1
24,Cn1c(O)c(C2=c3ccccc3=NC2=O)c2ccccc21 [PCM-0216129],-17
25,Cc1ccc2oc(=O)ccc2c1 [PCM-0215023],-3.9

row,SMILES,inhibition at 10 µM [%]
1,CC(C)CC(=O)Nc1n[nH]c2c1CN(C(=O)C1CCN(C)CC1)C2(C)C [PCM-0095172],17.9
2,CCCCCCCC/C=C\CCCCCCCCCCCC(=O)O [PCM-0216153],-64.9
3,CC(C)(C)c1cnc(CSc2cnc(NC(=O)C3CCNCC3)s2)o1 [PCM-0094965],-6.2
4,CCOC(=O)[C@H]1O[C@@H]1C(=O)N[C@@H](CC(C)C)C(=O)NCCC(C)C [PCM-0215286],14.7
5,Cc1ccccc1CN1C2=NCCN2C(=O)C2=C1CCN(Cc1ccccc1)C2 [PCM-0095783],-19.3
6,COc1ccc(C2CNC(=O)C2)cc1OC1CCCC1 (stereo not drawn) [PCM-0065474],13.2
7,COc1cc2nc(N(C)CCCNC(=O)C3CCCO3)nc(N)c2cc1OC (stereo not drawn) [PCM-0064661],1.6
8,CCCCCCCCCCCC1=C(O)C(=O)C=C(O)C1=O [PCM-0095569],42.5
9,O=C(COc1cccc2c(=O)[nH]ccc12)c1ccccc1 [PCM-0095624],5.4
10,O=S(=O)(c1ccccc1)N(CC(F)(F)F)c1ccc(C(O)(C(F)(F)F)C(F)(F)F)cc1 [PCM-0095817],27
11,COc1cc(OC)c(/C=C/S(=O)(=O)Cc2ccc(OC)c(NCC(=O)O)c2)c(OC)c1 [PCM-0094976],-2.1
12,Cn1nc(C(C)(C)C)cc1C(=O)N[C@@H](Cc1cccc(Cl)c1)C(=O)NCC#N [PCM-0095472],-18.7
13,NC(=O)c1ncn([C@@H]2O[C@H](CO)[C@@H](O)[C@H]2O)c1O [PCM-0065422],0.9
14,COC(=O)Nc1nc2ccc(C(=O)c3cccs3)cc2[nH]1 [PCM-0065378],-6.2
15,CCN(CC)CC(=O)Oc1ccc(NC(C)=O)cc1 [PCM-0215103],-0.8
16,CC(=O)c1ccccc1O [PCM-0216621],0.8
17,CCCCNc1cc(C(=O)O)cc(S(N)(=O)=O)c1Oc1ccccc1 [PCM-0064421],-6.2
18,Cc1c(NC(=O)OC[C@@H]2COCCN2)cn2ncnc(Nc3ccc4c(cnn4Cc4cccc(F)c4)c3)c12 [PCM-0094984],32.4
19,CC1(C)CC[C@]2(C(=O)O[C@@H]3O[C@H](CO)[C@@H](O)[C@H](O)[C@H]3O)CC[C@]3(C)C(=CC[C@@H]4[C@@]5(C)CC[C@H](O[C@@H]6O[C@H](C(=O)O)[C@@H](O)[C@H](O)[C@H]6O)C(C)(C)[C@@H]5CC[C@]43C)[C@@H]2C1 [PCM-0216404],3.1
20,COc1ccc(OC)c(C2C(C#N)=C(N)Oc3n[nH]c(-c4ccc5ccccc5c4)c32)c1 (stereo not drawn) [PCM-0215398],1.5
21,CNCC[C@@H](Oc1ccccc1C)c1ccccc1 [PCM-0086150],11.7
22,CNc1nc(Nc2cn(C(C)(C)C#N)nc2C)ncc1C(F)(F)F [PCM-0095754],7.6
23,CN(C)c1ccc(C(=O)NCCCCCCC(=O)NO)cc1 [PCM-0095347],4.7
24,C[C@]12C=CC(=O)C=C1CC[C@H]1[C@@H]3C[C@@H](O)[C@](O)(C(=O)CO)[C@@]3(C)C[C@H](O)[C@@]12F [PCM-0064944],2.1
25,CCCc1nc(C(C)(C)O)c(C(=O)OCc2oc(=O)oc2C)n1Cc1ccc(-c2ccccc2-c2nn[nH]n2)cc1 [PCM-0086318],0.8

row,SMILES,inhibition at 10 µM [%]
1,N#Cc1c(NC(=O)c2cccc3ccccc23)sc2c1CCCC2 [PCM-0095805],16.6
2,C1=C/COCc2cc(ccc2OCCN2CCCC2)Nc2nccc(n2)-c2cccc(c2)COC/1 [PCM-0215268],71.7
3,COc1c(C)c2c(c(O)c1C/C=C(\C)CCC(=O)O)C(=O)OC2 [PCM-0090203],19.3
4,CC(=O)OCC1=C(C(=O)O)N2C(=O)[C@@H](NC(=O)CSc3ccncc3)[C@H]2SC1 [PCM-0215254],3.1
5,Cc1cc(Nc2cc(CN3CCOCC3)c3nc(C)c(Cc4ccc(Cl)cc4F)n3n2)n[nH]1 [PCM-0095222],56.6
6,COc1cccc(-c2cc(=O)c3ccccc3o2)c1N [PCM-0065604],4.8
7,C=C1CCC[C@]2(C)C[C@@H]3OC(=O)C(C)=C3C[C@@H]12 [PCM-0216545],-38.6
8,CC(C[N+](C)(C)C)OC(N)=O (stereo not drawn) [PCM-0064662],-7
9,OC[C@@H](O)[C@@H](O)[C@H](O)[C@@H](O)CO [PCM-0090796],-19.5
10,C#Cc1cccc(Nc2ncnc3cc(OC)c(OCCCCCCC(=O)NO)cc23)c1 [PCM-0095078],87.6
11,NC(=O)c1ccc(OCCCN2CC3CCCC3C2)cc1 (stereo not drawn) [PCM-0215865],6.2
12,CCCCCCCC(=O)CCc1ccc(O)c(OC)c1 [PCM-0216195],-8.3
13,Nc1nc(=S)c2ncn([C@H]3C[C@H](O)[C@@H](CO)O3)c2[nH]1 [PCM-0215558],-7.7
14,CC[C@H]1OC(=O)[C@H](C)[C@@H](O[C@H]2C[C@@](C)(OC)[C@@H](O)[C@H](C)O2)[C@H](C)[C@@H](O[C@@H]2O[C@H](C)C[C@H](N(C)C)[C@H]2O)[C@](C)(O)C[C@@H](C)[C@@H]2N[C@@H](COCCOC)O[C@H]([C@H]2C)[C@]1(C)O [PCM-0214762],-10.9
15,COC(=O)c1ccc(O)cc1 [PCM-0215083],-5.4
16,Cc1cnc(Nc2ccc(N3CCN(C)CC3)cc2)nc1Nc1cccc(S(=O)(=O)NC(C)(C)C)c1 [PCM-0095386],82.8
17,CCCCCCCCCCCCc1ccc(S(=O)(=O)Nc2nncs2)cc1 [PCM-0095111],53.8
18,CCC(=O)O[C@@H]1CC(=O)O[C@H](C)C/C=C/C=C/[C@H](O)[C@H](C)C[C@H](CC=O)[C@H](O[C@@H]2O[C@H](C)[C@@H](O[C@H]3C[C@@](C)(O)[C@@H](OC(=O)CC)[C@H](C)O3)[C@H](N(C)C)[C@H]2O)[C@H]1OC [PCM-0216255],6.2
19,C=CCc1ccc(O)c(-c2ccc(O)c(CC=C)c2)c1 [PCM-0094855],37.9
20,C[C@@H]1O[C@@H](OC[C@H]2O[C@@H](Oc3c(-c4ccc(OCCO)c(OCCO)c4)oc4cc(OCCO)cc(O)c4c3=O)[C@H](O)[C@@H](O)[C@@H]2O)[C@H](O)[C@H](O)[C@H]1O [PCM-0214656],-19.5
21,CCCS(=O)(=O)Nc1ccc(F)c(C(=O)c2c[nH]c3ncc(-c4ccc(Cl)cc4)cc23)c1F [PCM-0095039],24.8
22,C[N+](C)(C)C[C@H](O)CC(=O)[O-] [PCM-0090364],10.1
23,COC(=O)c1c2c(c3ccccc3c1O)OC(C)(C)C=C2 [PCM-0216437],-27
24,Cc1cc(O)c2c(c1)C(=O)c1cccc(O)c1C2=O [PCM-0090919],-4.8
